Data as given in patent US12022844B2, “Nutritional composition, food/drink composition using nutritional composition, and modified milk powder using nutritional composition” (priority 2018, dated 2024).

Tested on: Lactobacillus acidophhilus ATCC4356
Assay: Single bacterial culturing with HMO as sugar source, OD650
Format: cell-based, Lactobacillus acidophilus
Details: ATCC 4356^T, sugar source 2%, 8 h, Table 6
Description: A10% solution of glucose (manufactured by Nakarai Tesque Inc.), and 2′-FL ((≥95%) Funakoshi, available from sigma), and LNnT (manufactured by ELICITYL) as examples of HMOs was prepared with ion exchanged water, and was subjected to sterile filtration using Millex-GV (SLGV033RS).
Lactobacilli MRS Broth (BD) (0.05% L-Cysteine Hydrochloride for Bacteria of the genus Bifidobacterium) was added to strains of Table 1 below (bacteria belonging to Bifidobacterium bifidum) and Table 2 below. After a sterilization treatment, 3% of the bacterial solution was inoculated, and anaerobically cultured (pre-pre cultured) at 37° C. for 16 h. […]
OD650 was measured from each well in the plates in the above (4) and the above (5) before (0 h) culturing and after (8 h) culturing, by MICROPLATE READER SH-9000 (manufactured by CORONA ELECTRIC). […] After the DNA extraction, the number of proliferating bacteria of Bifidobacteria/lactobacilli was analyzed by using the bacterial species-specific primer noted in Table 4, by a quantitative PCR method (see “Structural analysis of intestinal flora”—analysis of bacterial flora in human feces using quantitative PCR—by Kouichi Watanabe, Enterobacteriological journal, 20:35-42, 2006).
Regarding strains in Table 2, each strain was cultured as a single bacterium by 2′-FL or LNnT (HMOs) as a sugar source, and OD650 was measured. […]

2′-fucosyllactose [2′-FL]
OD650 increase value: 0.01
